Broadly, the ED50 is the dose that gives a 50% effect, or the effect in half of the subjects.

Values joined by “and” are separate entries in the source; they are usually repeats but may differ in a detail not shown here. Identical values can stand only once. Like-named read-outs stand apart in the source and are kept apart here.

The experiment deals with SRS-A-mediated bronchoconstriction after ovalbumin (OVA) challenge in guinea pigs. The experiment is described as follows: SRS-A-mediated (OVA-induced) bronchoconstriction in anaesthetized, mechanically ventilated sensitized guinea pigs. Type of experiment: in vivo, guinea pig. To be noted: Cavia porcellus. On the procedure:
Male Dunkin Hartley guinea pigs; body weight 200-250 g at sensitization and 350-500 g when performing the experiments. Ovalbumin (OVA) was used as allergen for active sensitization. Therefore, 20 μg OVA together with 20 mg Al(OH)3 suspended in 0.5 ml 0.9% NaCl-solution (=saline) were administered i.p. to each animal on 2 consecutive days. […] Controls received the drug-free methocel-solution 1 h before OVA-challenge as placebo (n=12). OVA-challenge and lung function measurements were performed in anaesthetized and mechanically ventilated animals. […] To enhance the SRS-A-mediated bronchoconstriction, the animals were pretreated with: indomethacin 10 mg/kg i.v. 20 min before OVA-challenge to block the cyclooxygenase pathway and to enhance the production of lipoxygenase-mediators, mainly leukotrienes. […] The time-effect curve for the delta-%-decrease of compliance and conductance was determined up to 12 min post challenge. Blood pressure and heart rate were monitored to control vitality. The area under the time-delta-%-decrease curves (AUC) was determined for each animal. On basis of the AUC-values, the inhibition of the SRS-A-induced decrease of compliance and conductance was calculated in reference to placebo. […] Measured and calculated ED50-values were compared by an unpaired t-test for statistical significant differences.

For the compound `O=C(Nc1c(Cl)cncc1Cl)c1ccc(OC(F)F)c(OCC2CC2)c1` [ROFLUMILAST, 3-cyclopropylmethoxy-4-difluoromethoxy-N-(3,5-dichloropyrid-4-yl)-benzamide], the 50% effective dose (ED50) (read-out: ED50, inhibition of decrease of airway compliance) was 0.58 mg/kg and 1.45 µmol/kg; the ED50 (read-out: ED50, inhibition of decrease of airway conductance) was 0.69 mg/kg and 1.73 µmol/kg.

(Values after patent publication US20050014762A1, “Combination” (priority 2001, published 2005).)
